Test results as given in patent US20100298141A1, “SUBSTITUTED PYRIDINE N-OXIDE HERBICIDES” (E. I. DU PONT DE NEMOURS AND COMPANY, priority 2007, published 2010).

What was measured:
lambsquarters = assay: Test C pre-/postemergence test; assay type: in vivo, Chenopodium album; details: for Plant response rating, Lambsquarters: 31 g ai/ha, scale 0 to 100 (0 no effect, 100 complete control)
Summary of the method: (§1)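 Seeds were planted and treated preemergence with test chemical in a non-phytotoxic solvent mixture containing surfactant. Postemergence applications of the same formulation went onto plants 2 to 18 cm tall (1- to 4-leaf stage). A dash marks no test result.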

Goosegrass = assay: Test C pre-/postemergence test; assay type: in vivo, Eleusin indica; details: for Plant response rating, Goosegrass: 31 g ai/ha, scale 0 to 100 (0 no effect, 100 complete control)
Summary of the method: as §1

woolly cupgrass = assay: Test C pre-/postemergence test; assay type: in vivo, Eriochloa villosa; details: for Plant response rating, Cupgrass, Woolly: 31 g ai/ha, scale 0 to 100 (0 no effect, 100 complete control)
Summary of the method: as §1

giant foxtail [1] = assay: Test C pre-/postemergence test; assay type: in vivo, Setaria faberii; details: for Plant response rating, Foxtail, Giant: 31 g ai/ha, scale 0 to 100 (0 no effect, 100 complete control)
Summary of the method: as §1

johnsongrass = assay: Test C pre-/postemergence test; assay type: in vivo, Sorghum halepense; details: for Plant response rating, Johnsongrass: 31 g ai/ha, scale 0 to 100 (0 no effect, 100 complete control)
Summary of the method: as §1

morningglory [2] = assay: Test C pre-/postemergence test; assay type: in vivo, Ipomoea coccinea; details: for Plant response rating, Morningglory: 31 g ai/ha, scale 0 to 100 (0 no effect, 100 complete control)
Summary of the method: as §1

cocklebur = assay: Test C pre-/postemergence test; assay type: in vivo, Xanthium strumarium; details: for Plant response rating, Cocklebur: 31 g ai/ha, scale 0 to 100 (0 no effect, 100 complete control)
Summary of the method: as §1

crabgrass = assay: Test A pre-/postemergence greenhouse test; assay type: in vivo, Digitaria sanguinalis; details: for Plant response rating, Crabgrass, Large: 0 to 100 scale where 0 is no effect and 100 is complete control; for Crabgrass, Large plant response rating: 0 to 100 scale
Summary of the method: (§2)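 Each test compound, dissolved in a non-phytotoxic solvent mixture with surfactant, was sprayed directly onto seeded soil (loam/sand blend) and, at the same moment, onto seedlings carrying one to two leaves. Around ten greenhouse days later, plants were rated visually for injury relative to untreated controls.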

soybean = assay: Test C pre-/postemergence test; assay type: in vivo, Glycine max; details: for Plant response rating, Soybean: 31 g ai/ha, scale 0 to 100 (0 no effect, 100 complete control)
Summary of the method: as §1

common ragweed = assay: Test C pre-/postemergence test; assay type: in vivo, Ambrosia elation; details: for Plant response rating, Ragweed: 31 g ai/ha, scale 0 to 100 (0 no effect, 100 complete control)
Summary of the method: as §1

downy brome = assay: Test C pre-/postemergence test; assay type: in vivo, Bromus tectorum; details: for Plant response rating, Bromegrass, Downy: 31 g ai/ha, scale 0 to 100 (0 no effect, 100 complete control)
Summary of the method: as §1

umbrella sedge = assay: Test C flooded paddy test; assay type: in vivo, Cyperus difformis; details: Flood
Summary of the method: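 Visual injury ratings against untreated controls, taken 13 to 15 days after compound was added to paddy water standing 3 cm above the soil.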

corn = assay: Test C pre-/postemergence test; assay type: in vivo, Zea mays; details: for Plant response rating, Corn: 31 g ai/ha, scale 0 to 100 (0 no effect, 100 complete control)
Summary of the method: as §1

giant foxtail [3] = assay: Test A pre-/postemergence greenhouse test; assay type: in vivo, Setaria faberi; details: for Plant response rating, Foxtail, Giant: 0 to 100 scale where 0 is no effect and 100 is complete control; for Foxtail, Giant plant response rating: 0 to 100 scale
Summary of the method: as §2

morningglory [4] = assay: Test A pre-/postemergence greenhouse test; assay type: in vivo, Ipomoea spp.; details: for Plant response rating, Morningglory: 0 to 100 scale where 0 is no effect and 100 is complete control; for Morningglory plant response rating: 0 to 100 scale
Summary of the method: as §2

wheat = assay: Test A pre-/postemergence greenhouse test; assay type: in vivo, Triticum aestivum; details: for Plant response rating, Wheat: 0 to 100 scale where 0 is no effect and 100 is complete control; for Wheat plant response rating: 0 to 100 scale
Summary of the method: as §2

yellow nutsedge = assay: Test C pre-/postemergence test; assay type: in vivo, Cyperus esculentus; details: for Plant response rating, Nutsedge, Yellow: 31 g ai/ha, scale 0 to 100 (0 no effect, 100 complete control)
Summary of the method: as §1

[5] = 62 g ai/ha, Preemergence, scale 0 to 100
[6] = 125 g ai/ha, preemergence, scale 0 (no effect) to 100 (complete control)
[7] = preemergence, 250 g ai/ha, scale 0 (no effect) to 100 (complete control)
[8] = Postemergence, 500 g ai/ha, 0 is no effect, 100 is complete control
[9] = Preemergence, 125 g ai/ha, 0 no effect, 100 complete control
[10] = Preemergence, 500 g ai/ha, 0 no effect, 100 complete control
[11] = 250 g ai/ha, scale 0 to 100, 0 no effect, 100 complete control, 13 to 15 days
[12] = preemergence, 125 g ai/ha, scale 0 (no effect) to 100 (complete control)
[13] = Postemergence, 125 g ai/ha, 0 is no effect, 100 is complete control

SMILES: C#CCOc1c(CS(=O)(=O)c2cccc[n+]2[O-])c(C(F)(F)F)nn1C [Compound 103]
- Lambsquarters plant response rating (lambsquarters; [5]): 50
- Lambsquarters plant response rating (lambsquarters; [6]): 50
- Plant response rating, Lambsquarters (lambsquarters; Preemergence): 10
- Lambsquarters plant response rating (lambsquarters; [7]): 95
- Goosegrass plant response rating (Goosegrass; [5]): 100
- Goosegrass plant response rating (Goosegrass; [6]): 100
- Plant response rating, Goosegrass (Goosegrass; Preemergence): 50
- Goosegrass plant response rating (Goosegrass; [7]): 100
- Cupgrass, Woolly plant response rating (woolly cupgrass; [5]): 30
- Cupgrass, Woolly plant response rating (woolly cupgrass; [6]): 85
- Plant response rating, Cupgrass, Woolly (woolly cupgrass; Preemergence): 0
- Cupgrass, Woolly plant response rating (woolly cupgrass; [7]): 100
- Foxtail, Giant plant response rating (giant foxtail [1]; [5]): 95
- Foxtail, Giant plant response rating (giant foxtail [1]; [6]): 100
- Plant response rating, Foxtail, Giant (giant foxtail [1]; Preemergence): 55
- Foxtail, Giant plant response rating (giant foxtail [1]; [7]): 100
- Johnsongrass plant response rating (johnsongrass; [5]): 100
- Johnsongrass plant response rating (johnsongrass; [6]): 100
- Plant response rating, Johnsongrass (johnsongrass; Preemergence): 30
- Johnsongrass plant response rating (johnsongrass; [7]): 100
- Morningglory plant response rating (morningglory [2]; [5]): 55
- Morningglory plant response rating (morningglory [2]; [6]): 80
- Plant response rating, Morningglory (morningglory [2]; Preemergence): 0
- Morningglory plant response rating (morningglory [2]; [7]): 98
- Cocklebur plant response rating (cocklebur; [5]): 0
- Cocklebur plant response rating (cocklebur; [6]): 0
- Plant response rating, Cocklebur (cocklebur; Preemergence): 0
- Cocklebur plant response rating (cocklebur; [7]): 30
- Plant response rating, Crabgrass, Large (crabgrass; Postemergence, 125 g ai/ha): 70
- Crabgrass, Large plant response rating (crabgrass; [8]): 90
- Crabgrass, Large plant response rating (crabgrass; [9]): 70
- Crabgrass, Large plant response rating (crabgrass; [10]): 100
- Soybean plant response rating (soybean; [5]): 0
- Soybean plant response rating (soybean; [6]): 10
- Plant response rating, Soybean (soybean; Preemergence): 0
- Soybean plant response rating (soybean; [7]): 50
- Ragweed plant response rating (common ragweed; [5]): 0
- Ragweed plant response rating (common ragweed; [6]): 80
- Plant response rating, Ragweed (common ragweed; Preemergence): 0
- Ragweed plant response rating (common ragweed; [7]): 85
- Bromegrass, Downy plant response rating (downy brome; [5]): 0
- Bromegrass, Downy plant response rating (downy brome; [6]): 70
- Plant response rating, Bromegrass, Downy (downy brome; Preemergence): 0
- Bromegrass, Downy plant response rating (downy brome; [7]): 70
- Plant response rating, Sedge, Umbrella (umbrella sedge; 62 g ai/ha, scale 0 to 100 (0 no effect, 100 complete control)): 0
- Plant response rating, Sedge, Umbrella (umbrella sedge; [11]): 55
- Corn plant response rating (corn; [5]): 0
- Corn plant response rating (corn; [6]): 65
- Plant response rating, Corn (corn; Preemergence): 0
- Corn plant response rating (corn; [7]): 95
- Plant response rating, Foxtail, Giant (giant foxtail [3]; Postemergence, 125 g ai/ha): 80
- Foxtail, Giant plant response rating (giant foxtail [3]; [8]): 90
- Foxtail, Giant plant response rating (giant foxtail [3]; [9]): 80
- Foxtail, Giant plant response rating (giant foxtail [3]; [10]): 100
- Plant response rating, Morningglory (morningglory [4]; Postemergence, 125 g ai/ha): 20
- Morningglory plant response rating (morningglory [4]; [8]): 70
- Morningglory plant response rating (morningglory [4]; [9]): 0
- Morningglory plant response rating (morningglory [4]; [10]): 70
- Plant response rating, Wheat (wheat; Postemergence, 125 g ai/ha): 20
- Wheat plant response rating (wheat; [8]): 50
- Wheat plant response rating (wheat; [9]): 10
- Wheat plant response rating (wheat; [10]): 80
- Nutsedge, Yellow plant response rating (yellow nutsedge; [5]): 70
- Nutsedge, Yellow plant response rating (yellow nutsedge; [6]): 85
- Plant response rating, Nutsedge, Yellow (yellow nutsedge; Preemergence): 0
- Nutsedge, Yellow plant response rating (yellow nutsedge; [7]): 85

SMILES: Cc1cc[n+]([O-])c(S(=O)(=O)Cc2c(C(F)(F)F)nn(C)c2OCC(F)(F)F)c1 [Compound 31]
- Lambsquarters plant response rating (lambsquarters; [5]): 95
- Plant response rating, Lambsquarters (lambsquarters; Preemergence): 80
- Goosegrass plant response rating (Goosegrass; [5]): 100
- Plant response rating, Goosegrass (Goosegrass; Preemergence): 100
- Plant response rating (0 to 100), Goosegrass (Goosegrass; Preemergence, 250 g ai/ha): 100
- Cupgrass, Woolly plant response rating (woolly cupgrass; [5]): 100
- Plant response rating, Cupgrass, Woolly (woolly cupgrass; Preemergence): 95
- Plant response rating (0 to 100), Cupgrass, Woolly (woolly cupgrass; Preemergence, 250 g ai/ha): 100
- Foxtail, Giant plant response rating (giant foxtail [1]; [5]): 100
- Plant response rating, Foxtail, Giant (giant foxtail [1]; Preemergence): 100
- Plant response rating (0 to 100), Foxtail, Giant (giant foxtail [1]; Preemergence, 250 g ai/ha): 100
- Johnsongrass plant response rating (johnsongrass; [5]): 100
- Plant response rating, Johnsongrass (johnsongrass; Preemergence): 100
- Plant response rating (0 to 100), Johnsongrass (johnsongrass; Preemergence, 250 g ai/ha): 100
- Morningglory plant response rating (morningglory [2]; [5]): 100
- Plant response rating, Morningglory (morningglory [2]; Preemergence): 85
- Cocklebur plant response rating (cocklebur; [5]): 0
- Plant response rating, Cocklebur (cocklebur; Preemergence): 0
- Plant response rating (0 to 100), Cocklebur (cocklebur; Preemergence, 250 g ai/ha): 50
- Cocklebur plant response rating (cocklebur; [12]): 40
- Crabgrass, Large plant response rating (crabgrass; [13]): 70
- Crabgrass, Large plant response rating (crabgrass; [8]): 80
- Crabgrass, Large plant response rating (crabgrass; [9]): 90
- Plant response rating, Crabgrass, Large (crabgrass; Preemergence, 500 g ai/ha): 100
- Soybean plant response rating (soybean; [5]): 15
- Plant response rating, Soybean (soybean; Preemergence): 10
- Ragweed plant response rating (common ragweed; [5]): 10
- Plant response rating, Ragweed (common ragweed; Preemergence): 0
- Bromegrass, Downy plant response rating (downy brome; [5]): 50
- Plant response rating, Bromegrass, Downy (downy brome; Preemergence): 0
- Plant response rating (0 to 100), Bromegrass, Downy (downy brome; Preemergence, 250 g ai/ha): 80
- Bromegrass, Downy plant response rating (downy brome; [12]): 70
- Plant response rating, Sedge, Umbrella (umbrella sedge; 31 g ai/ha, scale 0 to 100 (0 no effect, 100 complete control)): 65
- Plant response rating, Sedge, Umbrella (umbrella sedge; 62 g ai/ha, scale 0 to 100, 0 no effect, 100 complete control, 13 to 15 days): 85
- Plant response rating, Sedge, Umbrella (umbrella sedge; 125 g ai/ha, scale 0 to 100, 0 no effect, 100 complete control, 13 to 15 days): 100
- Plant response rating, Sedge, Umbrella (umbrella sedge; [11]): 100
- Corn plant response rating (corn; [5]): 50
- Plant response rating, Corn (corn; Preemergence): 0
- Plant response rating (0 to 100), Corn (corn; Preemergence, 250 g ai/ha): 98
- Corn plant response rating (corn; [12]): 85
- Foxtail, Giant plant response rating (giant foxtail [3]; [13]): 80
- Foxtail, Giant plant response rating (giant foxtail [3]; [8]): 90
- Foxtail, Giant plant response rating (giant foxtail [3]; [9]): 100
- Plant response rating, Foxtail, Giant (giant foxtail [3]; Preemergence, 500 g ai/ha): 100
- Morningglory plant response rating (morningglory [4]; [13]): 60
- Morningglory plant response rating (morningglory [4]; [8]): 80
- Morningglory plant response rating (morningglory [4]; [9]): 90
- Plant response rating, Morningglory (morningglory [4]; Preemergence, 500 g ai/ha): 100
- Wheat plant response rating (wheat; [13]): 50
- Wheat plant response rating (wheat; [8]): 60
- Wheat plant response rating (wheat; [9]): 60
- Plant response rating, Wheat (wheat; Preemergence, 500 g ai/ha): 80
- Nutsedge, Yellow plant response rating (yellow nutsedge; [5]): 100
- Plant response rating, Nutsedge, Yellow (yellow nutsedge; Preemergence): 60
